How the values were obtained:
Type in all cases: biochemical
JAK3 = target: T1, JAK3 (Homo sapiens, UniProt P52333); assay: JAK enzymatic assay (peptide mobility shift), JAK3; conditions: recombinant JAK3 1 nM, ATP 4 μM, 1 μM JAKtide peptide, 90 minutes
T1 construct: purchased Invitrogen Corporation, Madison, Wis; PV3855
T1 sequence (P52333 1-1124): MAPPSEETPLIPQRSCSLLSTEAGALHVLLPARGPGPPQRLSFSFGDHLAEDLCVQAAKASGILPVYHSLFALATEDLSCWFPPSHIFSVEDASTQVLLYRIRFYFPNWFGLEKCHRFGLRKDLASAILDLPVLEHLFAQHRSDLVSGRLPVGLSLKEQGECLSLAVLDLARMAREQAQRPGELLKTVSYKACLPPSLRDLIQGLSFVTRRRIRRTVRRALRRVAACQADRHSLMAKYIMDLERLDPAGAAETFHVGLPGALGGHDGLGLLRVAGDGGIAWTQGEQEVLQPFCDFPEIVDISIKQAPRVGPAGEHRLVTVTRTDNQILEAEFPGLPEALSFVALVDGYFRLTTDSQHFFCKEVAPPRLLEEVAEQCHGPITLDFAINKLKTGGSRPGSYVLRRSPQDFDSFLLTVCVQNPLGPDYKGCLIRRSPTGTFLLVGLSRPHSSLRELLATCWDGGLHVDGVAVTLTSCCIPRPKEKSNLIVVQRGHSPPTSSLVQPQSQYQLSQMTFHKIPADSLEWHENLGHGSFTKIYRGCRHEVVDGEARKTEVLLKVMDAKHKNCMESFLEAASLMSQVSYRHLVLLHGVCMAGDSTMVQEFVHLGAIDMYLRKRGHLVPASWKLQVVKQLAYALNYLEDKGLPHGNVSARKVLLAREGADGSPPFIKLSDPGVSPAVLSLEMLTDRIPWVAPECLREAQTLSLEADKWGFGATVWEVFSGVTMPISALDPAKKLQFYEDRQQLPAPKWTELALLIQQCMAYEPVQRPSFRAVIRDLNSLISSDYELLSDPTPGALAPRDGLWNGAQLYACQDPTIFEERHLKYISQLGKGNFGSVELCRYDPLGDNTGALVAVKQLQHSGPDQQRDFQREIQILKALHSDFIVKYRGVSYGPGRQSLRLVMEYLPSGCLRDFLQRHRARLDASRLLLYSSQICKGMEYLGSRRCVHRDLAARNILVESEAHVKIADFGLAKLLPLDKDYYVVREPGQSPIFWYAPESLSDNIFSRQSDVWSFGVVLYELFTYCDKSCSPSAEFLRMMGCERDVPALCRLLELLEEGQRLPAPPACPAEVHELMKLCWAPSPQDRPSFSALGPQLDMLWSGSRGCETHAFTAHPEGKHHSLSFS
From the text: Recombinant JAK1 (Catalog Number PV4775), JAK2 (Catalog Number PV4210) and JAK3 (Catalog Number PV3855) were purchased from (Invitrogen Corporation, Madison, Wis.). Tyk2 (His-Tyk2 (888-1182, C936S, C1142S)) used in this study was expressed and purified at Pfizer Laboratories. Adenosine 5′-triphosphate (ATP) was obtained from (Sigma Chemical Company, St. Louis, Mo.). […] Coating Reagent 3 was purchased from (Caliper Life Sciences, Hopkinton, Mass.).
(§1) A peptide mobility shift assay was used to quantify the phosphorylation of the JAKtide (JAK2 and JAK3) or the IRS-1 peptide ([…] and Tyk2). Reactions were carried out in a 384-well plate (Matrical MP-101) in a 10 μL total volume. Reaction mixtures contained 20 mM HEPES, pH 7.4, 10 mM magnesium chloride, 0.01% bovine serum albumin (BSA), 0.0005% Tween-20, ATP (4 μM for JAK2 and JAK3, 40 μM for JAK1 and 7 μM for Tyk2)), 2% DMSO and 1 μM peptide substrate (JAKtide for JAK2 and JAK3 and IRS-1 peptide for JAK1 and Tyk2). Compounds were diluted serially in 100% dimethyl sulfoxide and tested in an 11 point dose response in duplicate or quadruplicate (200 nl of compound/DMSO was added per 10 μL reaction). The reactions were initiated by the addition of enzyme to the final concentration of 2 nM JAK2, 1 nM JAK3, 12 nM Tyk2 or 20 nM JAK1. The assay was run for 240 minutes for JAK1, 150 minutes for JAK2, 90 minutes for JAK3 and 70 minutes for Tyk2. The assays were stopped at the specified times with 20 uL of 140 mM HEPES, 22.5 mM EDTA and 0.15% Coating Reagent 3. The plates were placed on a LabChip 3000 (LC3000) instrument from (Caliper Life Sciences) to measure the formation of phosphorylated peptide. Data was analyzed using Hits Well Analyzer Software from (Caliper Life Sciences) to obtain the amount of product formed.
(§2) Data was then imported into an internal application where each data point is expressed as % inhibition based on uninhibited and no enzyme controls. Dose-response data is then fit using a 4 parameter logistic equation (Equation 1) to determine an IC50.
(§3) Where max is the fitted uninhibited value, min is the fitted complete inhibition value, and s is the slope factor.

JAK2 = target: T2, JAK2 (Homo sapiens, UniProt O60674); assay: JAK enzymatic assay (peptide mobility shift), JAK2; conditions: recombinant JAK2 2 nM, ATP 4 μM, 1 μM JAKtide peptide, 150 minutes
T2 construct: purchased Invitrogen Corporation, Madison, Wis; PV4210
From the text: (§4) Recombinant JAK1 (Catalog Number PV4775), JAK2 (Catalog Number PV4210) and JAK3 (Catalog Number PV3855) were purchased from (Invitrogen Corporation, Madison, Wis.). Tyk2 (His-Tyk2 (888-1182, C936S, C1142S)) used in this study was expressed and purified at Pfizer Laboratories. Adenosine 5′-triphosphate (ATP) was obtained from (Sigma Chemical Company, St. Louis, Mo.). The JAKtide peptide (peptide sequence, FITC-[…]) used for the JAK2 and JAK3 assays and the IRS-1 peptide (peptide sequence, 5-FAM-[…]) used for the JAK1 and Tyk2 assays were purchased from (American Peptide Company, Sunnyvale, Calif.). Coating Reagent 3 was purchased from (Caliper Life Sciences, Hopkinton, Mass.).
as §1, §2, §3

JAK1 = target: T3, JAK1 (Homo sapiens, UniProt P23458); assay: JAK enzymatic assay (peptide mobility shift), JAK1; conditions: recombinant JAK1 20 nM, ATP 40 μM, 1 μM IRS-1 peptide, 240 minutes
T3 construct: purchased Invitrogen Corporation, Madison, Wis; PV4775
From the text: as §4, §1, §2, §3

T3 sequence (P23458 whole entry): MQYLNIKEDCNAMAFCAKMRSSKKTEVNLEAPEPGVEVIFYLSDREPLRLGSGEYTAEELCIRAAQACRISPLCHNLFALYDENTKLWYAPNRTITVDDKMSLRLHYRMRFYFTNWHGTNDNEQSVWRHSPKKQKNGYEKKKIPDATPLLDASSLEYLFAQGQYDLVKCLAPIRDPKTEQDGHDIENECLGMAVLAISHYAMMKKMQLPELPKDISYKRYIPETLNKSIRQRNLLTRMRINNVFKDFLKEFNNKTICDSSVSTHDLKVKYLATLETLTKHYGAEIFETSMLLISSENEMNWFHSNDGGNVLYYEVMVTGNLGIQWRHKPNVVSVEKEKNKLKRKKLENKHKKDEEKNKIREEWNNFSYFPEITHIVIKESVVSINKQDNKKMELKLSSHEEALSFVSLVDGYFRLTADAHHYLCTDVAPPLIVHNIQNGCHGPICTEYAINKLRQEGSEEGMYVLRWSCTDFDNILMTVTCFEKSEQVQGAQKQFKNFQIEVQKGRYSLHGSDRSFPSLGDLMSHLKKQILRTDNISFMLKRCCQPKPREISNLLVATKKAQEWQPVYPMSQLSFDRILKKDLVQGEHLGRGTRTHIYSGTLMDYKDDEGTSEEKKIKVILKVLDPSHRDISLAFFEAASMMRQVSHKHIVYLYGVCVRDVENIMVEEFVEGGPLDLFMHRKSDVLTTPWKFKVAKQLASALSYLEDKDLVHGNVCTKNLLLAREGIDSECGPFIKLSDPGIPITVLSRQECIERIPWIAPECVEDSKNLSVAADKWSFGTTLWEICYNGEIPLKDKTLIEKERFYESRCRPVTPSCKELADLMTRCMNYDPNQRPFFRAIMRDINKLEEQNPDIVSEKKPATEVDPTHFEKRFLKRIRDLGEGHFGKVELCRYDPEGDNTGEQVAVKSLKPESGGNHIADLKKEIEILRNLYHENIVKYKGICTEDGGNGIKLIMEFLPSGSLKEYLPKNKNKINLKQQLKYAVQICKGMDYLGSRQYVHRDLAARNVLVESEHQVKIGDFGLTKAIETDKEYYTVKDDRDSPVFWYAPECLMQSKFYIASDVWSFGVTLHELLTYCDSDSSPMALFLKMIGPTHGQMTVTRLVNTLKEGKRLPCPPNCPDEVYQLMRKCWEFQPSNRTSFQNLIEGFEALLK
T2 sequence (O60674 whole entry): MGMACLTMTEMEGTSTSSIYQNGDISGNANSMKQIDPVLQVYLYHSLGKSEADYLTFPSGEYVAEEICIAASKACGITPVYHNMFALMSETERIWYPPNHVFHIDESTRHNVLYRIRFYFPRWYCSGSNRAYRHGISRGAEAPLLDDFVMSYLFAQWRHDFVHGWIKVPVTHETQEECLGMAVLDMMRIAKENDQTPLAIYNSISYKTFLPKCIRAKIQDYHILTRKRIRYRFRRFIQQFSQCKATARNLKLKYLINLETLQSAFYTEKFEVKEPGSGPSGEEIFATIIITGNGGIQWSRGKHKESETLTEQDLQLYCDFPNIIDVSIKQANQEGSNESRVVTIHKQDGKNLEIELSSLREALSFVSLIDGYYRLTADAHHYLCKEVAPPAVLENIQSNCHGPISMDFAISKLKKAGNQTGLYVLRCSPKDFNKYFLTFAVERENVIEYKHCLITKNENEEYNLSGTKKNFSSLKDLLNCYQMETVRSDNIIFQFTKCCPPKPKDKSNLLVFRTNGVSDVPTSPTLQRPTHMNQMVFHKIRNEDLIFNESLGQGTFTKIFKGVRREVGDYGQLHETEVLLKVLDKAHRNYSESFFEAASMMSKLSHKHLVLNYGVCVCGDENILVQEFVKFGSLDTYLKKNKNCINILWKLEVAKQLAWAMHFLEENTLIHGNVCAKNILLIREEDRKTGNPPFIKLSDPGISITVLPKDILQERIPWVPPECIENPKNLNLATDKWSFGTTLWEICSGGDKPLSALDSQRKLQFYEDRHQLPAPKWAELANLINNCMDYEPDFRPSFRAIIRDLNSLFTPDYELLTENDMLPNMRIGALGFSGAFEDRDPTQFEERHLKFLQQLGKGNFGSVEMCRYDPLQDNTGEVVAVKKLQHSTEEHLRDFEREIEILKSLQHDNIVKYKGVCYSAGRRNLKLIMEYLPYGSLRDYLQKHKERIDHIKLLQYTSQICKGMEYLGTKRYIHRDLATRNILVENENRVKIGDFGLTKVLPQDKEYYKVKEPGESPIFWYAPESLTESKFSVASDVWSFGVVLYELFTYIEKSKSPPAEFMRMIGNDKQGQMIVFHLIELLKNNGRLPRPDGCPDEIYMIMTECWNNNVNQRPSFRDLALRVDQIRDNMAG

IC50 (JAK3) | IC50 (JAK2) | IC50 (JAK1) | SMILES
140 nM | 52.4 nM | 10.3 nM | CN(c1ncnc2[nH]ccc12)[C@H]1CC[C@H](CS(=O)(=O)Nc2ccc(C#N)cc2)CC1 [Example 21, N-(4-cyanophenyl)-1-{trans-4-[methyl(7H-pyrrolo[2,3-d]pyrimidin-4-yl)amino]cyclohexyl}-methanesulfonamide]
137 nM | 11.3 nM | 4.44 nM | Cc1ccc(CCNS(=O)(=O)C[C@H]2CC[C@H](N(C)c3ncnc4[nH]ccc34)CC2)cc1 [Example 7, N-[2-(4-methylphenyl)-ethyl]-1-{trans-4-[methyl-(7H-pyrrolo[2,3-d]pyrimidin-4-yl)amino]cyclohexyl}-methanesulfonamide]
301 nM | 34.1 nM | 11 nM | COc1cccc(CCNS(=O)(=O)C[C@H]2CC[C@H](N(C)c3ncnc4[nH]ccc34)CC2)c1 [Example 10, N-[2-(3-methoxyphenyl)-ethyl]-1-{trans-4-[methyl-(7H-pyrrolo[2,3-d]pyrimidin-4-yl)amino]cyclohexyl}-methanesulfonamide]
96.1 nM | 38.1 nM | 9.58 nM | CN(c1ncnc2[nH]ccc12)[C@H]1CC[C@H](CS(=O)(=O)Nc2ccc(CC#N)cc2)CC1 [Example 20, N-[4-(cyanomethyl)phenyl]-1-{trans-4-[methyl(7H-pyrrolo[2,3-d]pyrimidin-4-yl)amino]cyclohexyl}methane-sulfonamide]
403 nM | 32.3 nM | 6.05 nM | CN(c1ncnc2[nH]ccc12)[C@H]1CC[C@H](CS(=O)(=O)NCC(C)(F)c2ccc(F)cc2)CC1 (stereo partly drawn) [Example 8, N-[2-fluoro-2-(4-fluoro-phenyl)propyl]-1-{trans-4-[methyl(7H-pyrrolo[2,3-d]-pyrimidin-4-yl)amino]-cyclohexyl}-methanesulfonamide]
228 nM | 57.4 nM | 18.6 nM | CN(c1ncnc2[nH]ccc12)[C@H]1CC[C@H](CS(=O)(=O)Nc2ccc(Cl)nc2)CC1 [Example 25, N-(6-chloropyridin-3-yl)-1-{trans-4-[methyl(7H-pyrrolo[2,3-d]pyrimidin-4-yl)-amino]cyclohexyl}-methanesulfonamide]
175 nM | 27.5 nM | 21.3 nM | COc1ccc(CNS(=O)(=O)C[C@H]2CC[C@H](N(C)c3ncnc4[nH]ccc34)CC2)cc1 [Example 18, N-(4-methoxybenzyl)-1-{trans-4-[methyl(7H-pyrrolo[2,3-d]-pyrimidin-4-yl)amino]-cyclo-hexyl}methanesulfonamide]
376 nM | 57.9 nM | 9.3 nM | CN(c1ncnc2[nH]ccc12)[C@H]1CC[C@H](CS(=O)(=O)NCc2cccnc2)CC1 [Example 19, 1-{trans-4-[methyl(7H-pyrrolo[2,3-d]pyrimidin-4-yl)amino]cyclohexyl}-N-(pyridin-3-ylmethyl)-methanesulfonamide]
241 nM | 32.4 nM | 15.2 nM | CN(c1ncnc2[nH]ccc12)[C@H]1CC[C@H](CS(=O)(=O)Nc2ccn[nH]2)CC1 [Example 22, 1-{trans-4-[methyl(7H-pyrrolo[2,3-d]pyrimidin-4-yl)amino]cyclohexyl}-N-1H-pyrazol-5-yl-methanesulfonamide]
622 nM | 76.1 nM | 6.85 nM | CN(Cc1cccnc1)S(=O)(=O)C[C@H]1CC[C@H](N(C)c2ncnc3[nH]ccc23)CC1 [Example 35, N-methyl-1-{trans-4-[methyl(7H-pyrrolo[2,3-d]-pyrimidin-4-yl)amino]-cyclohexyl}-N-(pyridin-3-ylmethyl)-methanesulfonamide]
192 nM | 24.2 nM | 4.95 nM | CN(c1ncnc2[nH]ccc12)[C@H]1CC[C@H](CS(=O)(=O)NCCc2cccc(F)c2)CC1 [Example 33, N-[2-(3-fluorophenyl)ethyl]-1-{trans-4-[methyl(7H-pyrrolo[2,3-d]pyrimidin-4-yl)amino]cyclohexyl}-methanesulfonamide]
1060 nM | 174 nM | 16.1 nM | CN(c1ncnc2[nH]ccc12)[C@H]1CC[C@H](CS(=O)(=O)NC[C@H]2CCCO2)CC1 [Example 47, 1-{trans-4-[methyl(7H-pyrrolo[2,3-d]pyrimidin-4-yl)amino]cyclohexyl}-N-[(2R)-tetrahydrofuran-2-ylmethyl]-methanesulfonamide]
121 nM | 22.2 nM | 8.72 nM | COc1ccc(NS(=O)(=O)C[C@H]2CC[C@H](N(C)c3ncnc4[nH]ccc34)CC2)cn1 [Example 28, N-(6-methoxypyridin-3-yl)-1-{trans-4-[methyl(7H-pyrrolo[2,3-d]pyrimidin-4-yl)amino]cyclohexyl}methane-sulfonamide]
517 nM | 53.2 nM | 14.9 nM | CN(Cc1cnccn1)S(=O)(=O)C[C@H]1CC[C@H](N(C)c2ncnc3[nH]ccc23)CC1 [Example 43, N-methyl-1-{trans-4-[methyl(7H-pyrrolo[2,3-d]-pyrimidin-4-yl)amino]-cyclohexyl}-N-(pyrazin-2-ylmethyl)-methanesulfonamide]
267 nM | 66 nM | 19.6 nM | CN(c1ncnc2[nH]ccc12)[C@H]1CC[C@H](CS(=O)(=O)NCCC(F)=C(F)F)CC1 [Example 48, 1-{trans-4-[methyl(7H-pyrrolo[2,3-d]pyrimidin-4-yl)amino]cyclohexyl}-N-(3,4,4-trifluorobut-3-en-1-yl)methanesulfonamide]
292 nM | 123 nM | 11.6 nM | CN(c1ncnc2[nH]ccc12)[C@H]1CC[C@H](CS(=O)(=O)NC2CC(NC(=O)OC(C)(C)C)C2)CC1 (stereo partly drawn) [Example 41, tert-butyl (3-{[({trans-4-[methyl(7H-pyrrolo[2,3-d]-pyrimidin-4-yl)amino]-cyclohexyl}methyl)sulfonyl]amino}cyclobutyl)-carbamate]

From US8372854B2, “Pyrrolo[2,3-D]pyrimidine compounds” (Pfizer Inc., priority 2009, dated 2013)
